These results are taken from publication PMC3270411 (Chemistry & biology, 2012).

Read-outs that look alike come from different tables or passages of the source.

Common to all, as to format: cell-based
For one test, the target named is T1, IKKb (Homo sapiens, UniProt O14920).
T1 sequence (O14920 1-756): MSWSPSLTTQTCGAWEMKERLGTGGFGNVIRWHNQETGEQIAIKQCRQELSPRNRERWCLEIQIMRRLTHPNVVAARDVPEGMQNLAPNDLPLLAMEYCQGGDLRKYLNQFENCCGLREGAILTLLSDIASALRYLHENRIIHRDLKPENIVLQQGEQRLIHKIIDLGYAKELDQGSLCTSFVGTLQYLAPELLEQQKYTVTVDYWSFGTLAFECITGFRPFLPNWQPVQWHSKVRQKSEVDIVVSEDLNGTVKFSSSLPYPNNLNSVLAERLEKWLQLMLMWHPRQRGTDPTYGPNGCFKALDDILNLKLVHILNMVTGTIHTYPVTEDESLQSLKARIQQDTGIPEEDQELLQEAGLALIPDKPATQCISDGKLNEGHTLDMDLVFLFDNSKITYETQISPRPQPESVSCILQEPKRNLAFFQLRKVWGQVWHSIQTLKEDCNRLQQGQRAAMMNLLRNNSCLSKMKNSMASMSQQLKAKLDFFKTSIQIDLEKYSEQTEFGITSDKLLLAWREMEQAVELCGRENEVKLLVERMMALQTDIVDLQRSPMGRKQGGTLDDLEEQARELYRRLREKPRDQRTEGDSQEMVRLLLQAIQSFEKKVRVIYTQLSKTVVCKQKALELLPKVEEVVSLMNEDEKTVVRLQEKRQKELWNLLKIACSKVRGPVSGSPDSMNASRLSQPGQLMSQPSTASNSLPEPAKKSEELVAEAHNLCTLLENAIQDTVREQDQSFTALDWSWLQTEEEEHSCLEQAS
Description: KiNativ cellular kinase profiling. The settings on record: for Percent inhibition of kinase labeling by ATP-biotin: A375 cells, 1 μM, 3 hours, IKKb, labeling site Lys2; for inhibition at 1 µM: A-375, read-out: Percent inhibition of kinase labeling by ATP-biotin.

The test system of test [1] is c-Jun phosphorylation (phospho Ser73) in A375 cells.
In a further test the test system is TAO1,TAO3. The experiment in a line: KiNativ cellular kinase profiling. The note with it: A375 cells, 1 μM, 3 hours; TAO1,TAO3, labeling site Lys2.
A further test has as its system CK1d,CK1e. Description: KiNativ cellular kinase profiling. The note with it: A375 cells, 1 μM, 3 hours, labeling site Lys2.
Another test concerns the target MARK1 (Homo sapiens, UniProt Q9P0L2). Description: KiNativ cellular kinase profiling. The settings on record: for Percent inhibition of kinase labeling by ATP-biotin: A375 cells, 1 μM, 3 hours, MARK1, labeling site Lys2; for inhibition at 1 µM: A-375, read-out: Percent inhibition of kinase labeling by ATP-biotin.
For a further test, the target named is ZAK (Homo sapiens, UniProt Q9NYL2). The experiment in a line: KiNativ cellular kinase profiling. The settings on record: for Percent inhibition of kinase labeling by ATP-biotin: A375 cells, 1 μM, 3 hours, ZAK, labeling site Lys1; for inhibition at 1 µM: A-375, read-out: Percent inhibition of kinase labeling by ATP-biotin.
The target of a further test is T2, TAO2 (Homo sapiens, UniProt Q9UL54).
T2 sequence (Q9UL54 1-1235): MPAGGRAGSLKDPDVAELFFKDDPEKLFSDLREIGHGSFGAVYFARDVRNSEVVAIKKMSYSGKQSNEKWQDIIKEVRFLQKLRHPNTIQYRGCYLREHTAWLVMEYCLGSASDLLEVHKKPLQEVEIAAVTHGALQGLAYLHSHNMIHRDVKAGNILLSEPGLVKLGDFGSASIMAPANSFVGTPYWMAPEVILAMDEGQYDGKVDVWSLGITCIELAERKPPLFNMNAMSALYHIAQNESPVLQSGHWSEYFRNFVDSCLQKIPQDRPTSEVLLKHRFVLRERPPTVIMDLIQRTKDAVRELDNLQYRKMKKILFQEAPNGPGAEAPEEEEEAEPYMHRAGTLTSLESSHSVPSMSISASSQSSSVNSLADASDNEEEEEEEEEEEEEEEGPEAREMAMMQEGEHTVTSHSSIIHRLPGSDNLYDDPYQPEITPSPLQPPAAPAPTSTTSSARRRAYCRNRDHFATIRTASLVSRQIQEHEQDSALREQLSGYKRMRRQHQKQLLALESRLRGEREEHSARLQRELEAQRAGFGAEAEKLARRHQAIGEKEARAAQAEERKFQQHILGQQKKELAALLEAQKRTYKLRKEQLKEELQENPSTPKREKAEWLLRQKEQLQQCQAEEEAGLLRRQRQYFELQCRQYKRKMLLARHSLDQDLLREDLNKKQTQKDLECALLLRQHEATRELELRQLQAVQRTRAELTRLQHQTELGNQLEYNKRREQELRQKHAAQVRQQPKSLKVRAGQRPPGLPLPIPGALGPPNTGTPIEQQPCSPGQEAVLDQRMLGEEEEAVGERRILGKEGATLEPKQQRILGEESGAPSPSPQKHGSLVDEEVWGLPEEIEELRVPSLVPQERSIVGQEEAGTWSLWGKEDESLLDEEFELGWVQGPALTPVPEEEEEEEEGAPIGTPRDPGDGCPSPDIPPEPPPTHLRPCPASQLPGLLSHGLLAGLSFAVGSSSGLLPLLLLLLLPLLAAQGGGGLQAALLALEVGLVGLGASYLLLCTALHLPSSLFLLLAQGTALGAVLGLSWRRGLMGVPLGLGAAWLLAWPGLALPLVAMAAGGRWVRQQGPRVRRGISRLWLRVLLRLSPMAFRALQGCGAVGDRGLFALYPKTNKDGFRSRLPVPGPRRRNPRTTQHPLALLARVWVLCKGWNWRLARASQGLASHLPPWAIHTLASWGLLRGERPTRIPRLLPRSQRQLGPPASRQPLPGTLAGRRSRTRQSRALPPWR
The experiment in a line: KiNativ cellular kinase profiling. The note with it: for Percent inhibition of kinase labeling by ATP-biotin: A375 cells, 1 μM, 3 hours, TAO2, labeling site Lys2; for inhibition at 1 µM: A-375, read-out: Percent inhibition of kinase labeling by ATP-biotin.

A further test deals with GSK3B (Homo sapiens, UniProt P49841). Description: KiNativ cellular kinase profiling. The settings on record: for Percent inhibition of kinase labeling by ATP-biotin: A375 cells, 1 μM, 3 hours, GSK3B, labeling site Lys2; for inhibition at 1 µM: A-375, read-out: Percent inhibition of kinase labeling by ATP-biotin.
The target of the next test is CK1a (Homo sapiens, UniProt P48729). Description: KiNativ cellular kinase profiling. The note with it: for Percent inhibition of kinase labeling by ATP-biotin: A375 cells, 1 μM, 3 hours, CK1a, labeling site Lys2; for inhibition at 1 µM: A-375, read-out: Percent inhibition of kinase labeling by ATP-biotin.
The test system of a further test is ABL,ARG. The experiment in a line: KiNativ cellular kinase profiling. The settings on record: A375 cells, 1 μM, 3 hours, labeling site Lys1.
For another test, the target named is T3, PHKg2 (Homo sapiens, UniProt P15735).
T3 sequence (P15735 1-406): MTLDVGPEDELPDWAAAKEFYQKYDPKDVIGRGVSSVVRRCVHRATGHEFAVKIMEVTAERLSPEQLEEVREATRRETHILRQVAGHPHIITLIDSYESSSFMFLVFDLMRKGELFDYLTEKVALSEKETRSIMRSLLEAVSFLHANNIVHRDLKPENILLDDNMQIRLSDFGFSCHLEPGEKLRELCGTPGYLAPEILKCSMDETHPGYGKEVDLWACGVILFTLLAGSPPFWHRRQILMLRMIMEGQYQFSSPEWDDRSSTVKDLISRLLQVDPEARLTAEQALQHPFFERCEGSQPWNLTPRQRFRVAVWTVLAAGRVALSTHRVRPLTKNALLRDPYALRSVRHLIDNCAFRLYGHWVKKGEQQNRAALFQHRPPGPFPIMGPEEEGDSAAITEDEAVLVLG
Description: KiNativ cellular kinase profiling. The note with it: for Percent inhibition of kinase labeling by ATP-biotin: A375 cells, 1 μM, 3 hours, PHKg2, labeling site Lys1; for inhibition at 1 µM: A-375, read-out: Percent inhibition of kinase labeling by ATP-biotin.

Setting [2] is: read-out: p-c-Jun EC50 (nM) A375, A375 cells, anisomycin stimulation, microscopy.

Chain of MARK1 (Q9P0L2 whole entry): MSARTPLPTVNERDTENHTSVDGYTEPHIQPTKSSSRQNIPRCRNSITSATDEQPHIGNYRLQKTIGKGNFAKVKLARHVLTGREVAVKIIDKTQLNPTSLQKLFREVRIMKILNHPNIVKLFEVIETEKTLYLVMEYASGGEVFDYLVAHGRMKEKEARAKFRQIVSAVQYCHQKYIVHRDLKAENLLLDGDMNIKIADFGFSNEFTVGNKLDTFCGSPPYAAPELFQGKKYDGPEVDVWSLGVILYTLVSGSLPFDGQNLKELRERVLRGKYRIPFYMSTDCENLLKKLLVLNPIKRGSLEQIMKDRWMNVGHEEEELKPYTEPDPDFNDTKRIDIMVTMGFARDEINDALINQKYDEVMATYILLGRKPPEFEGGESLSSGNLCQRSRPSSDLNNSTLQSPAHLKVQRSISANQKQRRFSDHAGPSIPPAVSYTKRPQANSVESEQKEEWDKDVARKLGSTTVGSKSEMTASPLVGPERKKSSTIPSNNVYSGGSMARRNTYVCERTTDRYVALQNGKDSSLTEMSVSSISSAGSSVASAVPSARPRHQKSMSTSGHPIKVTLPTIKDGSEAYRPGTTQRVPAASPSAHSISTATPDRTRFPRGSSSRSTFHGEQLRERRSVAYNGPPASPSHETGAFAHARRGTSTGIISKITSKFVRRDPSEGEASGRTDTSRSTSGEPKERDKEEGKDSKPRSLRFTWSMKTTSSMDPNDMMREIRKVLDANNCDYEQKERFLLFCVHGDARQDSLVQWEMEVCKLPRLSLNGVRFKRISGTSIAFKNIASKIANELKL
Chain of CK1a (P48729 whole entry): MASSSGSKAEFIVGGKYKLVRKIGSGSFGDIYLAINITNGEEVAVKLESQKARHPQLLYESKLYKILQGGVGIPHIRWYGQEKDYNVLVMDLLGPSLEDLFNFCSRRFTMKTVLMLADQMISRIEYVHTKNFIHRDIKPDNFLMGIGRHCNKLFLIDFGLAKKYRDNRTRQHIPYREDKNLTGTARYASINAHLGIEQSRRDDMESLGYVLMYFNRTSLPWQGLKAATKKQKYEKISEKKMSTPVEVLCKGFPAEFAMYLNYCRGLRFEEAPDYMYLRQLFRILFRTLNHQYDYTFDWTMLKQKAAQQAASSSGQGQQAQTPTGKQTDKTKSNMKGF
Chain of GSK3B (P49841 whole entry): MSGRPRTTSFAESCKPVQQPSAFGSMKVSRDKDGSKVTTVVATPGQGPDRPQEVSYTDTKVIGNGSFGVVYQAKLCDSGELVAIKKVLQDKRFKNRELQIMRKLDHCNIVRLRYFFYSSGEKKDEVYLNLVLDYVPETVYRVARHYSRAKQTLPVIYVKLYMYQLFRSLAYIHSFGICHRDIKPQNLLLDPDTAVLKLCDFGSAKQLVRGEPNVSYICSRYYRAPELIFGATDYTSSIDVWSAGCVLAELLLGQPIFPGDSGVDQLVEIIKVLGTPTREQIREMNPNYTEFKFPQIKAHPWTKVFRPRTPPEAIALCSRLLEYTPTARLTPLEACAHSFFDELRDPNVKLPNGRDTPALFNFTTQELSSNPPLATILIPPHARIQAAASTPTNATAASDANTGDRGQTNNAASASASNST
Chain of ZAK (Q9NYL2 whole entry): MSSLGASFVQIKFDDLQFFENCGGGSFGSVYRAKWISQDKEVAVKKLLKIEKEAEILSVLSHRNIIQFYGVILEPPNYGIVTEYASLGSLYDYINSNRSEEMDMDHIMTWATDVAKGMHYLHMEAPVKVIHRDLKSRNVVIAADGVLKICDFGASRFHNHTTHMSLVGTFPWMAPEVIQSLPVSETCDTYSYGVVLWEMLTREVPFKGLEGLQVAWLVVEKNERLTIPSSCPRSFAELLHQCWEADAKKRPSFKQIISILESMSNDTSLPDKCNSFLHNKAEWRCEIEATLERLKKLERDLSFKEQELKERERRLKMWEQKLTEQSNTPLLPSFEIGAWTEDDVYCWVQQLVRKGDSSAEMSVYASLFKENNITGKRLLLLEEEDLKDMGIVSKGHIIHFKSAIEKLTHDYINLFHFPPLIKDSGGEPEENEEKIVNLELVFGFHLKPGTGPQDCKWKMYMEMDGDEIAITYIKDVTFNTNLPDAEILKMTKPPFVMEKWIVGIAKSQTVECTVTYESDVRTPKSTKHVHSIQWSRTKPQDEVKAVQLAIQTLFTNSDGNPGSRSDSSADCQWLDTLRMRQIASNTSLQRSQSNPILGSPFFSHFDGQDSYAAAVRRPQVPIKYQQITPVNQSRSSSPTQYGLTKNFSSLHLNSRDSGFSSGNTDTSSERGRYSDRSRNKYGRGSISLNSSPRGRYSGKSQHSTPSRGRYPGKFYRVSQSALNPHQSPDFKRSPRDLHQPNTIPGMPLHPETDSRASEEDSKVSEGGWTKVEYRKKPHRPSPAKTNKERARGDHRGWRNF

Regarding `CCC(=O)Nc1cccc(C(=O)Nc2ccc(Nc3nccc(-c4cccnc4)n3)cc2)c1` [JNK-IN-6], the “Percent inhibition of kinase labeling by ATP-biotin” value (shortened to “Percent inhibition”) amounted to 33.4% at IKKb; 35.8% with TAO1,TAO3; 32.4% in the test with CK1d,CK1e; 23.9% at MARK1; 3% on ZAK; 22.5% on TAO2. Also, the “Percent inhibition” value at GSK3B was 23.6%; on CK1a it was 19.5%; in the test with ABL,ARG, −1.4%; at PHKg2 it was 28%. The EC50 in test [1] (setting [2]) stood at 1900 nM.

`CN(C)C/C=C/C(=O)Nc1cccc(C(=O)Nc2ccc(Nc3nccc(-c4cccnc4)n3)cc2)c1` [JNK-IN-7]: the inhibition at 1 µM on IKKb is -10.1%; on MARK1 it was 7.9%; at ZAK it was 15.5%; at TAO2, -3.7%; at GSK3B it was 12.3%; on CK1a, -20.2%. Further, at PHKg2, the inhibition at 1 µM was -7%. Also, the “Percent inhibition” value is given as 13.1% in the test on TAO1,TAO3, 8.4% in the test on CK1d,CK1e and 1.9% with ABL,ARG.

For `Cc1cc(NC(=O)c2cccc(NC(=O)/C=C/CN(C)C)c2)ccc1Nc1nccc(-c2cccnc2)n1` [JNK-IN-8], the inhibition at 1 µM on IKKb was -6.5%; at MARK1 it was 8.9%; on ZAK, -7.8%; at TAO2 it was -21.6%; at GSK3B, -8.5%; on CK1a, -13.6%. Further, on PHKg2, the inhibition at 1 µM was -0.8%. Further, in test [1] (Homo sapiens, A-375, read-out: p-c-Jun EC50 (nM) A375), the EC50 came to 338 nM. Further, the “Percent inhibition” value in the test on TAO1,TAO3 was 2.9%; in the test on CK1d,CK1e it was −21.8%; in the test on ABL,ARG, −2.7%.

Consider `CN(C)C/C=C/C(=O)Nc1cccc(C(=O)Nc2ccc(Nc3nccc(-c4c(-c5ccccc5)nn5ccccc45)n3)cc2)c1` [JNK-IN-11], for which the inhibition at 1 µM was -11.2% on IKKb; 18.6% at MARK1; 84.4% at ZAK; 42.6% at TAO2; 67.1% on GSK3B; 61.1% at CK1a. At PHKg2, the inhibition at 1 µM was -76%. In addition, the entries for the “Percent inhibition” value with TAO1,TAO3, in the test on CK1d,CK1e and with ABL,ARG were 34.1%, 88.4% and 56.1%, respectively.

In the case of `CN(C)C/C=C/C(=O)Nc1cccc(C(=O)Nc2ccc(Nc3nccc(/C(C#N)=C4\Nc5ccccc5S4)n3)cc2)c1` [JNK-IN-12], the “Percent inhibition” value is recorded as −97.5% at IKKb; −10.8% with TAO1,TAO3; −75% in the test with CK1d,CK1e; −43.5% on MARK1; −40.2% on ZAK; −13% at TAO2. Further, the “Percent inhibition” value at GSK3B is listed as −29.6%; on CK1a it was −96%; with ABL,ARG, 7.9%; at PHKg2 it was −94.1%. In addition, the concentration for a half-maximal effect (EC50) in test [1] (setting [2]) is 134 nM.
